Data taken from ChEMBL document CHEMBL1201862, “PubChem BioAssay data set” (2004).
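Exposure lasted 48 hours, with cells grown in 96-well plates and compounds tested at five concentrations. Here, GI50 denotes the concentration required for 50% inhibition of growth.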 Active and inactive are the calls of the source. Rule as the data show it: active = GI50 up to about 1.1 µM and inactive = higher.

Tests used:
Assay in all cases: DTP human tumour cell line panel, 48 h
SF-539 = test system: SF-539
CCRF-CEM = test system: CCRF-CEM
COLO 205 = test system: COLO 205
SK-MEL-28 = test system: SK-MEL-28
SK-MEL-2 = test system: SK-MEL-2
HCT-116 = test system: HCT-116
A498 = test system: A498
EKVX = test system: EKVX
MOLT-4 = test system: MOLT-4
SK-MEL-5 = test system: SK-MEL-5
Malme-3M = test system: Malme-3M
IGROV-1 = test system: IGROV-1
SN12C = test system: SN12C
HL-60 = test system: HL-60
M19-MEL = test system: M19-MEL
SNB-78 = test system: SNB-78
KM-20L2 = test system: KM-20L2
RXF 631 = test system: RXF 631
DMS-114 = test system: DMS-114
RXF 393 = test system: RXF 393
CAKI-1 = test system: CAKI-1
NCI-H23 = test system: NCI-H23
NCI-H460 = test system: NCI-H460
SF-268 = test system: SF-268
K562 = test system: K562
OVCAR-4 = test system: OVCAR-4
SNB-19 = test system: SNB-19
DLD-1 = test system: DLD-1
SK-OV-3 = test system: SK-OV-3
HCC 2998 = test system: HCC 2998
TK-10 = test system: TK-10
UACC-257 = test system: UACC-257
A549 = test system: A549
XF498 = test system: XF498
SF-295 = test system: SF-295
SNB-75 = test system: SNB-75
786-0 = test system: 786-0
RPMI-8226 = test system: RPMI-8226
LXFL 529 = test system: LXFL 529
OVCAR-8 = test system: OVCAR-8
OVCAR-3 = test system: OVCAR-3
ACHN = test system: ACHN
HCT-15 = test system: HCT-15
M14 = test system: M14
U-251 = test system: U-251
SW-620 = test system: SW-620
DMS-273 = test system: DMS-273
LOX IMVI = test system: LOX IMVI
UO-31 = test system: UO-31
OVCAR-5 = test system: OVCAR-5
HT-29 = test system: HT-29
KM12 = test system: KM12
UACC-62 = test system: UACC-62
HOP-62 = test system: HOP-62
NCI-H226 = test system: NCI-H226
HOP-92 = test system: HOP-92
NCI-H522 = test system: NCI-H522
SR = test system: SR
HOP-18 = test system: HOP-18

SMILES: CCOP(=O)(OCC)C1CC(C)OC1=O (configuration not stated)
- GI50 (SF-539): > 100 µM (inactive)
- GI50 (CCRF-CEM): > 100 µM (inactive)
- GI50 (COLO 205): > 100 µM (inactive)
- GI50 (SK-MEL-28): > 100 µM (inactive)
- GI50 (SK-MEL-2): > 100 µM (inactive)
- GI50 (HCT-116): > 100 µM (inactive)
- GI50 (A498): > 100 µM (inactive)
- GI50 (EKVX): > 100 µM (inactive)
- GI50 (MOLT-4): > 100 µM (inactive)
- GI50 (SK-MEL-5): > 100 µM (inactive)
- GI50 (Malme-3M): > 100 µM (inactive)
- GI50 (IGROV-1): > 100 µM (inactive)
- GI50 (SN12C): > 100 µM (inactive)
- GI50 (HL-60): > 100 µM (inactive)
- GI50 (M19-MEL): > 100 µM (inactive)
- GI50 (SNB-78): > 100 µM (inactive)
- GI50 (KM-20L2): > 100 µM (inactive)
- GI50 (RXF 631): > 100 µM (inactive)
- GI50 (DMS-114): > 100 µM (inactive)
- GI50 (RXF 393): > 100 µM (inactive)
- GI50 (CAKI-1): > 100 µM (inactive)
- GI50 (NCI-H23): > 100 µM (inactive)
- GI50 (NCI-H460): > 100 µM (inactive)
- GI50 (SF-268): > 100 µM (inactive)
- GI50 (K562): > 100 µM (inactive)
- GI50 (OVCAR-4): > 100 µM (inactive)
- GI50 (SNB-19): > 100 µM (inactive)
- GI50 (DLD-1): > 100 µM (inactive)
- GI50 (SK-OV-3): > 100 µM (inactive)
- GI50 (HCC 2998): > 100 µM (inactive)
- GI50 (TK-10): > 100 µM (inactive)
- GI50 (UACC-257): > 100 µM (inactive)
- GI50 (A549): > 100 µM (inactive)
- GI50 (XF498): > 100 µM (inactive)
- GI50 (SF-295): > 100 µM (inactive)
- GI50 (SNB-75): > 100 µM (inactive)
- GI50 (786-0): > 100 µM (inactive)
- GI50 (RPMI-8226): > 100 µM (inactive)
- GI50 (LXFL 529): > 100 µM (inactive)
- GI50 (OVCAR-8): > 100 µM (inactive)
- GI50 (OVCAR-3): > 100 µM (inactive)
- GI50 (ACHN): > 100 µM (inactive)
- GI50 (HCT-15): > 100 µM
- GI50 (M14): > 100 µM (inactive)
- GI50 (U-251): > 100 µM (inactive)
- GI50 (SW-620): > 100 µM (inactive)
- GI50 (DMS-273): > 100 µM (inactive)
- GI50 (LOX IMVI): > 100 µM (inactive)
- GI50 (UO-31): > 100 µM (inactive)
- GI50 (OVCAR-5): > 100 µM (inactive)
- GI50 (HT-29): > 100 µM (inactive)
- GI50 (KM12): > 100 µM (inactive)
- GI50 (UACC-62): > 100 µM (inactive)
- GI50 (HOP-62): > 100 µM (inactive)

SMILES: CC(C)C1CC[C@@H](C)C[C@@]1(O)CC(N)=O (some centres not stated)
- GI50 (NCI-H226): > 100 µM (inactive)
- GI50 (SF-539): > 100 µM (inactive)
- GI50 (COLO 205): > 100 µM (inactive)
- GI50 (SK-MEL-28): > 100 µM (inactive)
- GI50 (SK-MEL-2): > 100 µM (inactive)
- GI50 (HCT-116): > 100 µM (inactive)
- GI50 (EKVX): > 100 µM (inactive)
- GI50 (MOLT-4): > 100 µM (inactive)
- GI50 (SK-MEL-5): > 100 µM (inactive)
- GI50 (Malme-3M): > 100 µM (inactive)
- GI50 (IGROV-1): > 100 µM (inactive)
- GI50 (SN12C): > 100 µM (inactive)
- GI50 (M19-MEL): > 100 µM (inactive)
- GI50 (SNB-78): > 100 µM (inactive)
- GI50 (KM-20L2): > 100 µM (inactive)
- GI50 (RXF 631): > 100 µM (inactive)
- GI50 (DMS-114): > 100 µM (inactive)
- GI50 (CAKI-1): > 100 µM (inactive)
- GI50 (NCI-H23): > 100 µM (inactive)
- GI50 (NCI-H460): > 100 µM (inactive)
- GI50 (K562): > 100 µM (inactive)
- GI50 (OVCAR-4): > 100 µM (inactive)
- GI50 (SNB-19): > 100 µM (inactive)
- GI50 (DLD-1): > 100 µM (inactive)
- GI50 (SK-OV-3): > 100 µM (inactive)
- GI50 (HCC 2998): > 100 µM (inactive)
- GI50 (TK-10): > 100 µM (inactive)
- GI50 (HOP-92): < 0.01 µM (active)
- GI50 (UACC-257): > 100 µM (inactive)
- GI50 (A549): > 100 µM (inactive)
- GI50 (XF498): 0.0344 µM (active)
- GI50 (SF-295): > 100 µM (inactive)
- GI50 (SNB-75): 66.2 µM (inactive)
- GI50 (NCI-H522): > 100 µM (inactive)
- GI50 (786-0): > 100 µM (inactive)
- GI50 (RPMI-8226): > 100 µM (inactive)
- GI50 (LXFL 529): > 100 µM (inactive)
- GI50 (OVCAR-8): > 100 µM (inactive)
- GI50 (OVCAR-3): > 100 µM (inactive)
- GI50 (ACHN): > 100 µM (inactive)
- GI50 (HCT-15): > 100 µM
- GI50 (M14): > 100 µM (inactive)
- GI50 (U-251): > 100 µM (inactive)
- GI50 (SW-620): > 100 µM (inactive)
- GI50 (SR): > 100 µM (inactive)
- GI50 (DMS-273): > 100 µM (inactive)
- GI50 (UO-31): > 100 µM (inactive)
- GI50 (OVCAR-5): > 100 µM (inactive)
- GI50 (HT-29): > 100 µM (inactive)
- GI50 (KM12): > 100 µM (inactive)
- GI50 (UACC-62): > 100 µM (inactive)
- GI50 (HOP-18): > 100 µM (inactive)

SMILES: CO/C=C/c1cc2c(cc1C(OC)OC)OCO2
- GI50 (NCI-H226): 57 µM (inactive)
- GI50 (SF-539): 34.7 µM (inactive)
- GI50 (CCRF-CEM): 39.7 µM (inactive)
- GI50 (SK-MEL-28): > 100 µM (inactive)
- GI50 (SK-MEL-2): 82.2 µM (inactive)
- GI50 (HCT-116): 27.5 µM (inactive)
- GI50 (EKVX): 69.7 µM (inactive)
- GI50 (MOLT-4): 33.7 µM (inactive)
- GI50 (SK-MEL-5): 17.4 µM (inactive)
- GI50 (Malme-3M): 53.6 µM (inactive)
- GI50 (IGROV-1): 60.1 µM (inactive)
- GI50 (SN12C): 79.3 µM (inactive)
- GI50 (HL-60): 3.56 µM (inactive)
- GI50 (M19-MEL): 76.4 µM (inactive)
- GI50 (SNB-78): > 100 µM (inactive)
- GI50 (KM-20L2): 35.2 µM (inactive)
- GI50 (RXF 631): 43.7 µM (inactive)
- GI50 (DMS-114): 32.9 µM (inactive)
- GI50 (RXF 393): 40.9 µM (inactive)
- GI50 (CAKI-1): 29.5 µM (inactive)
- GI50 (NCI-H23): 54 µM (inactive)
- GI50 (NCI-H460): 36 µM (inactive)
- GI50 (SF-268): 52.1 µM (inactive)
- GI50 (K562): 29.9 µM (inactive)
- GI50 (OVCAR-4): > 100 µM (inactive)
- GI50 (SNB-19): 36.7 µM (inactive)
- GI50 (DLD-1): 36.1 µM (inactive)
- GI50 (SK-OV-3): 26.1 µM (inactive)
- GI50 (HCC 2998): > 100 µM (inactive)
- GI50 (TK-10): 55 µM (inactive)
- GI50 (HOP-92): 40.2 µM (inactive)
- GI50 (UACC-257): > 100 µM (inactive)
- GI50 (A549): > 100 µM (inactive)
- GI50 (XF498): 33.4 µM (inactive)
- GI50 (SNB-75): 16.4 µM (inactive)
- GI50 (NCI-H522): > 100 µM (inactive)
- GI50 (786-0): 42.6 µM (inactive)
- GI50 (OVCAR-8): > 100 µM (inactive)
- GI50 (OVCAR-3): 29.9 µM (inactive)
- GI50 (ACHN): 83.4 µM (inactive)
- GI50 (M14): 31.1 µM (inactive)
- GI50 (U-251): 53.3 µM (inactive)
- GI50 (SW-620): 50 µM (inactive)
- GI50 (SR): 44.6 µM (inactive)
- GI50 (DMS-273): 30.3 µM (inactive)
- GI50 (UO-31): 26.5 µM (inactive)
- GI50 (OVCAR-5): 52.8 µM (inactive)
- GI50 (HT-29): 39.4 µM (inactive)
- GI50 (KM12): 52.6 µM (inactive)
- GI50 (UACC-62): 22.6 µM (inactive)
- GI50 (HOP-62): 26.7 µM (inactive)
